Columns and labels:
Assay type in all cases: functional
[1] = target: Melanocyte-stimulating hormone receptor (Mus musculus, UniProt Q01727)
[2] = target: T1, Melanocyte-stimulating hormone receptor (Homo sapiens, UniProt Q01726); test: Evaluated for agonist at […] frog (Rana pipiens) skin assay
[3] = target: T1, Melanocyte-stimulating hormone receptor

T1 sequence (Q01726 whole entry): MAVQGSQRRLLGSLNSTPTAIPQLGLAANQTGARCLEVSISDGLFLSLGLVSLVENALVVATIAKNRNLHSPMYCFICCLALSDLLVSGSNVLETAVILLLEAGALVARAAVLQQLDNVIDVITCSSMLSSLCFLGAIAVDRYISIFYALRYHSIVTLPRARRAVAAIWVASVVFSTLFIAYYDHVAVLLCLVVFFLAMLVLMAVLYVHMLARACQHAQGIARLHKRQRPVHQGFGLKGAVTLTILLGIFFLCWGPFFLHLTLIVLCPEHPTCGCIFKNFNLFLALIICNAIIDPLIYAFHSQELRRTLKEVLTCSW
Melanocyte-stimulating hormone receptor (Mus musculus, UniProt Q01727), sequence (Q01727 whole entry): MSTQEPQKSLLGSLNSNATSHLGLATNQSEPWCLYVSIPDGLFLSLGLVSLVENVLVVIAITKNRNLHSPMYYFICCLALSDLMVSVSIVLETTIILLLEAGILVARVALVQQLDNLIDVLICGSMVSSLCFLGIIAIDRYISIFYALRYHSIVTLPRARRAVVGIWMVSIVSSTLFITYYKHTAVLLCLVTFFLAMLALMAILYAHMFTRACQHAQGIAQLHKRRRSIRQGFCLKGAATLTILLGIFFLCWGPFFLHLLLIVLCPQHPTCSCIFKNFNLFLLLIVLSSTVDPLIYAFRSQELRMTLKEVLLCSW

Row | SMILES | EC50 [1] [nM] | EC50 [2] [nM] | EC50 [3] [nM]
1 | CCCC[C@H](NC(C)=O)C(=O)N[C@H]1CC(=O)NCCCC[C@@H](C(N)=O)NC(=O)[C@H](Cc2c[nH]c3ccccc23)NC(=O)[C@H](CCCNC(=N)N)NC(=O)[C@@H](Cc2ccc3ccccc3c2)NC(=O)[C@H](Cc2c[nH]cn2)NC1=O | 0.039 | – | –
2 | CCCC[C@H](NC(C)=O)C(=O)N[C@H]1CC(=O)NCCCC[C@@H](C(N)=O)NC(=O)[C@H](Cc2c[nH]c3ccccc23)NC(=O)[C@H](CCCNC(=N)N)NC(=O)[C@@H](Cc2ccc(Cl)cc2)NC(=O)[C@H](Cc2cnc[nH]2)NC1=O | 0.0095 | 2 | 0.005
3 | CCCC[C@H](NC(C)=O)C(=O)N[C@H]1CC(=O)NCCCC[C@@H](C(N)=O)NC(=O)[C@H](Cc2c[nH]c3ccccc23)NC(=O)[C@H](CCCN=C(N)N)NC(=O)[C@@H](Cc2ccc(F)cc2)NC(=O)[C@H](Cc2c[nH]cn2)NC1=O | 0.026 | 0.1 | 0.016
4 | CCCC[C@H](NC(C)=O)C(=O)N[C@H]1CC(=O)NCCCC[C@@H](C(N)=O)NC(=O)[C@H](Cc2c[nH]c3ccccc23)NC(=O)[C@H](CCCN=C(N)N)NC(=O)[C@@H](Cc2ccc(I)cc2)NC(=O)[C@H](Cc2c[nH]cn2)NC1=O | 0.19 | – | 0.055
